The structures appear in SMILES notation. Converted amounts (≈) assume the structure as drawn. Read-outs that look alike come from different tables or passages of the source. A value given as a limit tells only on which side of the number the result lay.

The test system of series [1] is M. marinum CAMP 5644 (MM). Kind of series: in vitro antimycobacterial MIC, broth dilution micromethod in Middlebrook 7H9. The series is classed as cell-based, Mycobacterium marinum. In general terms: In broth dilution the organism is exposed to a series of concentrations in liquid medium.
A short description of series [2]: lipophilicity by isocratic RP-HPLC (log k, k, log kw, S). It is filed as physicochemical. The note with it: for log kw: extrapolated to 100% water from log k versus ϕM; for S (slope): slope of log k versus ϕM regression. The text has this: Octadecyl-functionalized silica gel was currently used as a stationary phase (SPh) and a […] of two solvents at different volume ratios modified retention properties of the SPh. Liquid binary mixtures of methanol (MeOH) with water were employed as mobile phases (MPhs) in the isocratic RP-HPLC. The MeOH modifier was preferred because of similarity of both observed and extrapolated lipophilicity parameters with the ones determined in the octan-1-ol/water partition system, considering also sensitivity to H-bond donor properties of investigated compounds [41].
The modifier was applied in different volume concentrations, which varied from […] (v/v) with 5% increments. This interval was chosen due to very high lipophilicity of investigated salts. Practically, lower volume concentration of MeOH, i.e., less than 85% (v/v) in used MPhs, caused uncertainty of retention times (tr) due to notable peaks broadening, especially within subsets 1i–l and 1m–p. […] The highest tr parameters were found for the molecules 1k (tr = 47.108 min) and 1l (tr = 70.012 min) in the MPh containing 85% proportion (v/v) of MeOH (Table 2).
According to the authors’ opinions based on systematic scientific literature survey, a current research paper was the first, which aimed the log kw parameters of 2-/3-alkoxyphenylcarbamic acid derivatives containing two centers of protonation. The log kw values were extrapolated from intercepts of a relationship between log k and volume fraction of the MPh modifier (ϕM) using the Snyder–Soczewiński linear solvent strength model. The relationship was justified by R > 0.9900, Adj. R^2 > 0.9750 as well as F > 180.00 for calculation of particular log kw parameters (Table 3).
The HPLC separation module Waters e2695 equipped with a Waters 2996 PDA Detector (Waters Corp., Milford, MA, USA) and chromatographic column Symmetry C18 × 5 μm, 4.6 × 250 mm, Part No. W21751W016 (Waters Corp.) were used for estimation of lipophilic properties of the compounds 1a–p at 21 °C.
Isocratic elution was carried out using mobile phases consisting of methanol p.a. (MeOH; Honeywell, Paris, France) and purified water in various volume ratios (80:20, 85:15, 90:10, 95:5 (v/v) and pure MeOH, respectively). Distilled water (CentralChem, Bratislava, Slovak Republic) was purified by the Aquinity2 P10 ultra-pure water system for production of ultra-pure water with an integrated 10 L permeate tank (membraPure, Hennigsdorf, Germany).
Total flow of the column was 1.0 mL/min, injection volume was 4 μL and column temperature was set to 40 °C. The detection wavelengths varying from 236 nm to 238 nm were chosen for current experimental procedures.
Lipophilicity of the compounds 1a–p was determined by reversed-phase high-performance liquid chromatography (RP-HPLC). Methanol (MeOH)/water mobile phases with varying volume ratio of the organic modifier and water (80:20, 85:15, 90:10, 95:5 (v/v) and pure MeOH, respectively) were chosen.
A methanolic solution of potassium iodine was used for dead time (td) determination. Retention factors (capacity factors; k) were calculated according to Equation (17):k = (tr− td)/td(17) where tr was retention time of a solute (in min), the td parameter denoted dead time of potassium iodine, an unretained analyte (in min).
The observed retention (tr) and dead (td) times were means of three independent determinations. Average td values of potassium iodine in used MPhs were as follows: 2.237 min (MeOH/water ratio (v/v) was 80:20), 2.245 min (85:15), 2.245 min (90:10), 2.228 min (95:5) and 2.210 min (pure MeOH), respectively. […]

Series [3] can be described thus: electronic properties, UV/Vis spectrophotometry of methanolic solutions. It is filed as physicochemical. The note with it: methanolic solution c = 8.0 × 10^−5 M; for log ε2 (Ch-T): charge-transfer maximum λ2 (Ch-T) = 236–238 nm; for log ε1: λ1 = 208–210 nm; for log ε3: λ3 = 278–280 nm. The text has this: Electronic properties of the molecules 1a–p (Table 1) were characterized by logarithms of molar absorption coefficients (log ε) of their methanolic solutions (c = 8.0 × 10^−5 M) investigated in the UV/Vis region of an electromagnetic spectrum.
Positions of these absorption bands in the spectrum were typical for derivatives of (substituted) phenylcarbamic acid and the bands were assigned as first local excitation (λ3), charge-transfer (λ2 (Ch-T)) and second local excitation (λ1) absorption maxima, respectively. The λ1 and λ2 (Ch-T) maxima of 2-alkoxy substituted compounds 1a–d and 1i–l were slightly lower compared to those of their 3-alkoxy substituted positional isomers 1e–h and 1m–p (Table 1), respectively.
The UV/Vis spectra of methanolic solutions of analyzed compounds 1a–p (c = 8.0 × 10^−5 M) were observed on the 8452A Diode Array spectrophotometer HP-8452A (Hewlett-Packard, Palo Alto, CA, USA) at 21 °C. Methanol for UV-spectroscopy (Merck, Darmstadt, Germany) was used for preparation of these solutions. Results of the UV/Vis analyses were collected and stored digitally using the ChemStation controller software (Agilent Technologies, Waldbronn, Germany). The HP-8452A apparatus measured a complete range of compounds’ spectrum from 190 nm to 820 nm.
The log ε values for presently observed absorption maxima were calculated following the Lambert-Beer’s law, which was discussed in [35], for example, and expressed by Equation (16):A = ε × c × l(16) where the A parameter represented absorbance of a compound’s solution, the ε descriptor was a molar absorption coefficient (in L/mol/cm units) and l was path length (in cm units).

The test system of series [4] is M. kansasii DSM 44162 (MK DSM). Kind of series: in vitro antimycobacterial MIC, broth dilution micromethod in Middlebrook 7H9. It is filed as cell-based. The note with it: Mycobacterium kansasii, DSM 44162 / DSM 7, 168 h.
The mark [5] stands for this setting: Mycobacterium marinum, 504 h, 21-day cultivation, 28 °C, read-out: MIC MM 21-d.
[6] abbreviates: mobile phase MeOH/water 80:20 (v/v).
Setting [7] is: mobile phase MeOH/water 85:15 (v/v).
Where [8] appears, read: mobile phase MeOH/water 90:10 (v/v).
Where [9] appears, read: mobile phase MeOH/water 95:5 (v/v).
Where [10] appears, read: 7-day cultivation, 37 °C, read-out: MIC MK DSM 7-d.
[11] abbreviates: Mycobacterium marinum, 504 h, read-out: MIC MM 21-d, 21-day cultivation, 28 °C.
Setting [12] is: read-out: MIC MK DSM 7-d, 7-day cultivation, 37 °C.

Usually MIC stands for the least concentration at which growth counts as inhibited. For the compound `CCCCOc1ccccc1NC(=O)OC(CN(CCC)CCC)CN1CCCC1` (stereo not shown) [1a], the MIC in series [1] (setting [5]) was determined as 106 µM (≈ 44.5 µg/mL); in series [4] (setting [10]) it was 53 µM (≈ 22.2 µg/mL). Moreover, in series [2], the log kw is 3.7688. The “k (retention factor)” value was found to be 5.2060 in series [2] (setting [6]); 3.7636 in series [2] (setting [7]); 2.4877 in series [2] (setting [8]); 1.5878 in series [2] (setting [9]); 0.9114 in series [2] (mobile phase pure MeOH). The log k is 0.7165 in series [2] (setting [6]); 0.5756 in series [2] (setting [7]); 0.3958 in series [2] (setting [8]); 0.2008 in series [2] (setting [9]); −0.0403 in series [2] (mobile phase pure MeOH). Besides, the “S (slope)” value in series [2] is 3.7768. Also, in series [3], the “log ε2 (Ch-T)” value is 4.19. Besides, the “log ε1” value in series [3] came out at 4.51. Moreover, the “log ε3” value in series [3] was determined as 3.63.

With `CCCCCOc1ccccc1NC(=O)OC(CN(CCC)CCC)CN1CCCCCC1.O=C(O)C(=O)O` (stereo not shown) [1j, 1-[2-[({[2-(Pentyloxy)phenyl]amino}carbonyl)oxy]-3-(dipropylammonio)propyl]-azepanium oxalate], the MIC in series [1] (setting [11]) and in series [4] (setting [12]) was 50 µM each time. Also, the log kw in series [2] is recorded as 4.8466. The “k (retention factor)” value in series [2] (setting [6]) turned out to be 12.1983; in series [2] (setting [7]) it was 7.9086; in series [2] (setting [8]), 4.8173; in series [2] (setting [9]), 2.8242; in series [2] (mobile phase pure MeOH) it was 1.3960. The log k in series [2] (setting [6]) amounted to 1.0863; in series [2] (setting [7]), 0.8981; in series [2] (setting [8]), 0.6828; in series [2] (setting [9]), 0.4509; in series [2] (mobile phase pure MeOH), 0.1449. In addition, the “S (slope)” value in series [2] was 4.6600. The “log ε2 (Ch-T)” value in series [3] stood at 4.22. Further, the “log ε1” value in series [3] is 4.54. For the same compound, the “log ε3” value in series [3] was found to be 3.71.

As to `CCCCOc1ccccc1NC(=O)OC(CN(CCC)CCC)CN1CCCCCC1` (stereo not shown) [1i], the MIC in series [1] (setting [5]) and in series [4] (setting [10]) was 51 µM (≈ 22.8 µg/mL) in each case. Further, the log kw in series [2] is reported as 4.4679. The “k (retention factor)” value in series [2] (setting [6]) is reported as 9.7297; in series [2] (setting [7]) it was 6.5358; in series [2] (setting [8]), 4.2073; in series [2] (setting [9]) it was 2.4854; in series [2] (mobile phase pure MeOH) it was 1.3198. Further, the log k in series [2] (setting [6]) was determined as 0.9881; in series [2] (setting [7]), 0.8153; in series [2] (setting [8]), 0.6240; in series [2] (setting [9]), 0.3954; in series [2] (mobile phase pure MeOH) it was 0.1205. Also, the “S (slope)” value in series [2] came out at 4.3102. Moreover, the “log ε2 (Ch-T)” value in series [3] was 4.08. Also, in series [3], the “log ε1” value was determined as 4.44. In series [3], the “log ε3” value amounted to 3.57.

On to `CCCCCOc1ccccc1NC(=O)OC(CN(CCC)CCC)CN1CCCC1` (stereo not shown) [1b], for which the MIC in series [1] (setting [5]) worked out at 52 µM (≈ 22.5 µg/mL); in series [4] (setting [10]), 26.1 µM (≈ 11.3 µg/mL). Besides, the log kw in series [2] is recorded as 4.0454. Moreover, the “k (retention factor)” value in series [2] (setting [6]) came to 6.6904; in series [2] (setting [7]), 4.6302; in series [2] (setting [8]), 3.2092; in series [2] (setting [9]), 1.9235; in series [2] (mobile phase pure MeOH), 1.0479. The log k in series [2] (setting [6]) is 0.8254; in series [2] (setting [7]), 0.6656; in series [2] (setting [8]) it was 0.5064; in series [2] (setting [9]), 0.2841; in series [2] (mobile phase pure MeOH), 0.0203. Further, the “S (slope)” value in series [2] is 3.9834. The “log ε2 (Ch-T)” value in series [3] turned out to be 4.05. Also, the “log ε1” value in series [3] stood at 4.39. Moreover, the “log ε3” value in series [3] is 3.51.

`CCCCCCOc1cccc(NC(=O)OC(CN(CCC)CCC)CN2CCCCCC2)c1.Cl.Cl` (stereo not shown) [1o, 1-[2-[({[3-(hexyloxy)phenyl]amino}-carbonyl)oxy]-3-(dipropylammonio)propyl]azepanium dichloride]: the MIC in series [1] (setting [11]) was 7.3 µM; in series [4] (setting [12]), 3.6 µM. The log kw in series [2] is on record as 5.6569. In addition, the “k (retention factor)” value in series [2] (setting [6]) stood at 12.0420; in series [2] (setting [7]) it was 5.0804; in series [2] (setting [8]) it was 3.2915; in series [2] (setting [9]), 1.2868; in series [2] (mobile phase pure MeOH), 0.8674. The log k in series [2] (setting [6]) is 1.0807; in series [2] (setting [7]), 0.7059; in series [2] (setting [8]), 0.5174; in series [2] (setting [9]) it was 0.1095; in series [2] (mobile phase pure MeOH), −0.0618. In addition, the “S (slope)” value in series [2] amounted to 5.7628. In series [3], the “log ε2 (Ch-T)” value was determined as 4.01. For the same compound, the “log ε1” value in series [3] stood at 4.52. Moreover, the “log ε3” value in series [3] amounted to 3.37.

Take `CCCCCCCOc1cccc(NC(=O)OC(CN(CCC)CCC)CN2CCCC2)c1.Cl.Cl` (stereo not shown) [1h, 1-[2-[({[3-(heptyloxy)phenyl]amino}carbonyl)oxy]-3-(dipropylammonio)propyl]pyrrolidinium dichloride]: the MIC in series [1] (21-day cultivation, 28 °C, read-out: MIC MM 21-d) is less than 3.7 µM; in series [1] (setting [11]), less than 3.7 µM; in series [4] (setting [12]), 1.9 µM. For the same compound, the log kw in series [2] was 5.5384. In addition, the “k (retention factor)” value was 8.9557 in series [2] (setting [6]); 5.1988 in series [2] (setting [7]); 2.8609 in series [2] (setting [8]); 1.6188 in series [2] (setting [9]); 0.6091 in series [2] (mobile phase pure MeOH). Also, the log k in series [2] (setting [6]) is given as 0.9521; in series [2] (setting [7]), 0.7159; in series [2] (setting [8]), 0.4565; in series [2] (setting [9]), 0.2092; in series [2] (mobile phase pure MeOH) it was −0.2153. Moreover, the “S (slope)” value in series [2] was 5.6830. For the same compound, the “log ε2 (Ch-T)” value in series [3] is given as 4.27. For the same compound, the “log ε1” value in series [3] is reported as 4.66. Besides, in series [3], the “log ε3” value is recorded as 3.63.

Values taken from PMC6222509, “Dibasic Derivatives of Phenylcarbamic Acid against Mycobacterial Strains: Old Drugs and New Tricks?” (Molecules : A Journal of Synthetic Chemistry and Natural …, 2018).
